Data reported in patent US7910593B2, “Water-soluble prodrugs” (Chugai Seiyaku Kabushiki Kaisha, priority 2004, dated 2011).

Legend:
[1] = Test Example 1: conversion of compound 2A into activated form in mouse serum; type: in vitro ADME; settings: for compound 2A (measured values, %): mouse serum, 50 μM, 37° C.
Description: (§1) The percentages of compound 2A produced in Example 2 being converted into an activated form in sera of humans, mice, monkeys, and dogs were determined. The activated form is in a rapid equilibrium between the lactone form and the carboxylate form, which were quantified separately.
(§2) Compound 2A was incubated at 37° C. at a concentration of 50 μM in sera of humans, mice, monkeys, and dogs. Incubation was terminated at a given time (0, 30, 60, 120, and 360 minutes), and the samples were analyzed by HPLC after deproteinization treatments.
(§3) Conditions for the HPLC analysis are as follows: • HPLC conditions • Column: Develosil C30-UG-3, 3 μm, 50×4.6 mm I.D • Column Temperature: constant temperature at approximately 25° C. • Mobile phase: A: 10 mM phosphate buffer (pH4.7) • B: acetonitrile • /B (min): 90/10(0)→90/10(0.4)→40/60(6)→2/98(8)→90/10(9)→90/10(15)
(§4) Flow rate: 1.0 mL/min • Detection: photodiode array detector, detection wavelength 350 nm • Amount injected: 30 μL
(§5) Generally, camptothecins in solution are in a rapid equilibrium between a structure in which the carbonyl at position 3 forms a 6-membered cyclic ester with the oxygen at position 2, and its open-ring structure. The lactone form refers to the former condition and the carboxylate form refers to the latter condition.

[2] = Test Example 1: conversion of compound 2A into activated form in monkey serum; type: in vitro ADME; settings: for compound 2A (measured values, %): monkey serum, 50 μM, 37° C.
Description: as §1, §2, §3, §4, §5

[3] = Test Example 1: conversion of compound 2A into activated form in dog serum; type: in vitro ADME; settings: for compound 2A (measured values, %): dog serum, 50 μM, 37° C.
Description: as §1, §2, §3, §4, §5

[4] = Test Example 5: conversion of compound 2A into activated form in human sera; type: in vitro ADME; settings: for compound 2A (measured values, %): Test Example 5, human sera, 50 μM, 37° C.
Description: (§6) The percentages of compound 2A produced in Example 2 being converted into an activated form in sera of humans, rats, mice, monkeys, and dogs were determined. The activated form is in a rapid equilibrium between the lactone form and the carboxylate form, which were quantified separately.
(§7) Compound 2A was incubated at 37° C. at a concentration of 50 μM in sera of humans, mice, rats, monkeys, and dogs. Incubation was terminated at a given time (0, 30, 60, 120, and 360 minutes), and the samples were analyzed by HPLC after deproteinization treatments.
(§8) Conditions for the HPLC analysis are as follows: • HPLC conditions • Column: Develosil C30-UG-3, 3 μm, 35×4.6 mm I.D • Column Temperature: constant temperature at approximately 25° C. • Mobile phase: A: 10 mM phosphate buffer (pH4.7) • B: acetonitrile • /B (min): 90/10(0)→90/10(0.4)→40/60(6)→2/98(8)→90/10(9)→90/10(15) • Flow rate: 1.0 mL/min • Detection: photodiode array detector, detection wavelength 350 nm • Amount injected: 30 μL
as §5

[5] = Test Example 5: conversion of compound 2A into activated form in rat sera; type: in vitro ADME; settings: for compound 2A (measured values, %): Test Example 5, rat sera, 50 μM, 37° C.
Description: as §6, §7, §8, §5

[6] = Test Example 3: solubility in distilled water; type: physicochemical; settings: distilled water; read-out: Solubility in distilled water
Excerpt: The solubility of the water-soluble prodrugs obtained in the Examples (compounds 1A to 8A) in distilled water was compared to the solubility of (9S)-9-ethyl-9-hydroxy-1-pentyl-1H,12H-pyrano[3″,4″:6′,7′]indolizino[1′,2′:6,5]pyrido[4,3,2-de]quinazoline-10,13 (9H,15H)-dione (representative compound in Patent document 2: reference compound 1).

[7] = system: human colon cancer cell line HCT116; experiment: Test Example 4: antitumor effect in HCT116 tumor-bearing nude mice; type: in vivo, BALB/c nude mice; settings: once per week for three weeks
Description: Antitumor effects were determined for representative examples of the group of compounds of the present invention. Tumor-bearing mice were generated by subcutaneous transplantation of human colon cancer cell line HCT116 obtained from American Type Culture Collection (Virginia, USA) into the right flank of BALB/c nude mice purchased from Charles River Japan, and used for determination of antitumor effects.
After a one-week quarantine period, the purchased nude mice were subjected to subcutaneous transplantation of 5×10^6 HCT116 cells at their right flank. Mice with a tumor size reaching 200 mm^3 or so were subjected to the experiment.
The compounds were dissolved in 1 mM citric bufferes saline, pH 4, and administered intravenously. The administration was carried out once per week for three weeks, for a total of three administrations. The antitumor effect was determined as tumor growth inhibition (TGI) using the following equation. Tumor growth inhibition (TGI) (%)={(1−mean tumor volume change in the drug-treated group/mean tumor volume change in the control group)×100} The results are shown in Table 6.

CCCCCN1C=Nc2cccc3nc4c(c1c23)Cn1c-4cc2c(c1=O)COC(=O)[C@@]2(CC)OC(=O)CN(C)C(=O)CN.Cl [Compound 2A, (9S)-9-Ethyl-9-(glycyl-sarcosyloxy)-1-pentyl-1H,12H-pyrano[3″,4″:6′,7′]indolizino[1′,2′:6,5]pyrido[4,3,2-de]quinazoline-10,13(9H,15H)-dione hydrochloride]
conversion to the lactone form (in words) ([1]; mouse sera, Test Example 1): quickly converted to the lactone form | compound 2A (measured values, %) ([1]; incubation 0 minutes): 0% | compound 2A (measured values, %) ([1]; incubation 30 minutes): 0% | compound 2A (measured values, %) ([1]; incubation 60 minutes): 0% | compound 2A (measured values, %) ([1]; incubation 120 minutes): 0% | compound 2A (measured values, %) ([1]; incubation 360 minutes): 0% | conversion to the lactone form (in words) ([2]; monkey sera, Test Example 1): quickly converted to the lactone form | compound 2A (measured values, %) ([2]; incubation 0 minutes): 0% | compound 2A (measured values, %) ([2]; incubation 30 minutes): 0% | compound 2A (measured values, %) ([2]; incubation 60 minutes): 0% | compound 2A (measured values, %) ([2]; incubation 120 minutes): 0% | compound 2A (measured values, %) ([2]; incubation 360 minutes): 0% | conversion to the lactone form (in words) ([3]; dog sera, Test Example 1): quickly converted to the lactone form | compound 2A (measured values, %) ([3]; incubation 0 minutes): 0% | compound 2A (measured values, %) ([3]; incubation 30 minutes): 0% | compound 2A (measured values, %) ([3]; incubation 60 minutes): 0% | compound 2A (measured values, %) ([3]; incubation 120 minutes): 0% | compound 2A (measured values, %) ([3]; incubation 360 minutes): 0% | compound 2A (measured values, %) ([4]; incubation 0 minutes): 0% | compound 2A (measured values, %) ([4]; incubation 30 minutes): 0% | compound 2A (measured values, %) ([4]; incubation 60 minutes): 0% | compound 2A (measured values, %) ([4]; incubation 120 minutes): 0% | compound 2A (measured values, %) ([4]; incubation 360 minutes): 0% | conversion to the lactone form (in words) ([4]; human sera, Test Example 5): quickly converted to the lactone form | compound 2A (measured values, %) ([5]; incubation 0 minutes): 0% | compound 2A (measured values, %) ([5]; incubation 30 minutes): 0% | compound 2A (measured values, %) ([5]; incubation 60 minutes): 0% | compound 2A (measured values, %) ([5]; incubation 120 minutes): 0% | compound 2A (measured values, %) ([5]; incubation 360 minutes): 0% | conversion to the lactone form (in words) ([5]; rat sera, Test Example 5): quickly converted to the lactone form | solubility [6]: > 10000 µg/mL | TGI (%) on Day 21 ([7]; 0.9 mg/kg intravenously): 45% | TGI (%) on Day 21 ([7]; 1.9 mg/kg intravenously): 52% | TGI (%) on Day 21 ([7]; 3.75 mg/kg intravenously): 72% | TGI (%) on Day 21 ([7]; 7.5 mg/kg intravenously): 74% | TGI (%) on Day 21 ([7]; 15 mg/kg intravenously): 85% | TGI (%) on Day 21 ([7]; 30 mg/kg intravenously): 97% | TGI (%) on Day 21 ([7]; 60 mg/kg intravenously): 110%
